Measured values from patent US20240124465A1, “MOLECULES AND METHODS RELATED TO TREATMENT OF DISORDERS ASSOCIATED WITH JAK-2 SIGNALING DYSFUNCTION” (ST. JUDE CHILDREN'S RESEARCH HOSPITAL, priority 2020, published 2024).

How the values were obtained:
Type in all cases: cell-based
JAK1 = molecular target: T1, JAK1 (Homo sapiens, UniProt P23458); assay: Western blot assay, JAK1 protein degradation; settings: MHH-CALL-4 cells, vehicle control = 100%
T1 construct: endogenous in cells; host or cells: MHH-CALL-4
Method: (§1) Western blot assay: MHH-CALL-4 Cells were washed twice with ice-cold PBS and lysed in RIPA lysis buffer (Sigma) freshly supplemented with Halt™ Protease Inhibitor Cocktail (ThermoFisher) for 15 minutes on ice. The cell pellet was removed by centrifugation at 13,000 g at 4° C. for 15 minutes. Protein concentration was measured by BCA assay (Thermo Fisher Scientific). Proteins were denatured in NuPAGE LDS 4× sample buffer supplemented with reducing agents (Invitrogen). Typically, 10-20 μg of total protein was loaded per lane on a 4%-12% NUPAGE Bis-Tris gradient gel (Invitrogen) and analyzed by standard immunoblotting and imaged using Li—COR Odyssey CLx (LI-COR Biotechnology, Lincoln, NE). To access the protein degradation, the signal of target protein was normalized by the signal of ACBT and the signal of vehicle control was set as 100%. Primary antibodies used were: JAK1 (Cell Signaling #3332S), JAK2 (#3230S), JAK3 (#8827S), TYK2 (#9312S), GSPT1 (#14980S), CRBN (#71810S), IKZF1 (Santa Cruz Biotechnology, SC-398265) and ACBT (Santa Cruz Biotechnology, SC-47778).

GSPT1 = molecular target: T2, GSPT1 (Homo sapiens, UniProt P15170); assay: Western blot assay, GSPT1 neosubstrate degradation; settings: MHHCALL4; 100 nM, 24 h; MHH-CALL-4 cells; vehicle control = 100%
T2 construct: endogenous in cells; host or cells: MHH-CALL-4
Method: as §1

JAK2 = assay: Western blot assay, JAK2 protein degradation; settings: MHH-CALL-4 cells, vehicle control = 100%
Method: as §1

MHH-CALL-4 cells = assay: Cytotoxicity assay (resazurin, 72 hours); design: AUC: unit not given beside the values; settings: for EC50: MHHCALL4, resazurin; for AUC: area under the dose-response curve
Method: Cytotoxicity assay: MHH-CALL-4 cells were maintained in RPMI1640 medium (Invitrogen) supplemented with 10% FBS (Hyclone), Penicillin/Streptomycin (100 units/mL) and Glutamine (100 μM). 2×10^5 cells were seeded in 100 μl medium/well in 96 well assay plates (Corning 3603). Assays were performed in triplicate; compounds to be screened were added to assay plates from DMSO stock solutions by pin transfer using 50SS pins (V&P Scientific). The assay plates incubated at 37° C. in 5% CO2 for 72 hours. Cells were then incubated for four hours with resazurin (Sigma) solution and read on a Synergy HT plate reader (Biotek, Winooski, VT). High-throughput assay data was analyzed using our in-house Robust Interpretation of Screening Experiments (RISE) application written in Pipeline Pilot (Biovia, v. 17.2.0) and the R program (R Core Team, 2013). All the AUC (area under the dose-response curve) per compound calculated from its dose response curve by RISE protocol. Selected data were plotted and analyzed by GraphPad Prism software v7 using non-linear regression curve fitting.

JAK3 = molecular target: T3, JAK3 (Homo sapiens, UniProt P52333); assay: Western blot assay, JAK3 protein degradation; settings: MHHCALL4; 100 nM, 24 h; MHH-CALL-4 cells; vehicle control = 100%; read-out: Target Protein Degradation (% remaining at 100 nM, 24 h) JAK3
T3 construct: endogenous in cells; host or cells: MHH-CALL-4
T3 sequence (P52333 1-1124): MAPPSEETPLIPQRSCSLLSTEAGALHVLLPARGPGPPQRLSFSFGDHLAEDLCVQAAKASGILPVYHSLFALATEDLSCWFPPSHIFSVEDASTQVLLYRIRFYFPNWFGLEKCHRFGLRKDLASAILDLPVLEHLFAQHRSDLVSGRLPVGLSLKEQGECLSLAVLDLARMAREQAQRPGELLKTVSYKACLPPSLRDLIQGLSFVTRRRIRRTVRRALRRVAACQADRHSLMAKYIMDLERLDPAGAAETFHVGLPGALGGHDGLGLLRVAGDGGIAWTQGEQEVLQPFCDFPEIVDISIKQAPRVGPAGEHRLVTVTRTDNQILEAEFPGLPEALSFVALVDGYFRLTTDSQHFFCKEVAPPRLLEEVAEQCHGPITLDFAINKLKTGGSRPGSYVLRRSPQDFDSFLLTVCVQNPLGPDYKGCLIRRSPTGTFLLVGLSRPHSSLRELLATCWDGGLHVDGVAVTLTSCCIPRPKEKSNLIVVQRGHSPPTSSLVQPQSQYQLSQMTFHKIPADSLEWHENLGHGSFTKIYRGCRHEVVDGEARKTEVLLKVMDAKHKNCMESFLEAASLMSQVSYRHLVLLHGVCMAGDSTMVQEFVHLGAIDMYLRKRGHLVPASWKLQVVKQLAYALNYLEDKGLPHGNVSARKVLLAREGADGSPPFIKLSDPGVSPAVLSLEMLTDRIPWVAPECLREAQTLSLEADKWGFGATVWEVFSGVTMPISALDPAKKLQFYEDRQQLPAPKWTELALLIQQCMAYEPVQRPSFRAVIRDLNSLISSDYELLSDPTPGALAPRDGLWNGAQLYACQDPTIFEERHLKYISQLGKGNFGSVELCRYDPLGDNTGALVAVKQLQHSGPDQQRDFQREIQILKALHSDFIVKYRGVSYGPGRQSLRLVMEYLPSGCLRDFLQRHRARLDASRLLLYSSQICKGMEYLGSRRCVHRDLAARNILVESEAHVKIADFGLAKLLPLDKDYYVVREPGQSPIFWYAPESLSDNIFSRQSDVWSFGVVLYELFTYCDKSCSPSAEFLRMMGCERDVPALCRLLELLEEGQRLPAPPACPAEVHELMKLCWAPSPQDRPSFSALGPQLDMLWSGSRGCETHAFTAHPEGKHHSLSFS
Method: as §1

T1 sequence (P23458 whole entry): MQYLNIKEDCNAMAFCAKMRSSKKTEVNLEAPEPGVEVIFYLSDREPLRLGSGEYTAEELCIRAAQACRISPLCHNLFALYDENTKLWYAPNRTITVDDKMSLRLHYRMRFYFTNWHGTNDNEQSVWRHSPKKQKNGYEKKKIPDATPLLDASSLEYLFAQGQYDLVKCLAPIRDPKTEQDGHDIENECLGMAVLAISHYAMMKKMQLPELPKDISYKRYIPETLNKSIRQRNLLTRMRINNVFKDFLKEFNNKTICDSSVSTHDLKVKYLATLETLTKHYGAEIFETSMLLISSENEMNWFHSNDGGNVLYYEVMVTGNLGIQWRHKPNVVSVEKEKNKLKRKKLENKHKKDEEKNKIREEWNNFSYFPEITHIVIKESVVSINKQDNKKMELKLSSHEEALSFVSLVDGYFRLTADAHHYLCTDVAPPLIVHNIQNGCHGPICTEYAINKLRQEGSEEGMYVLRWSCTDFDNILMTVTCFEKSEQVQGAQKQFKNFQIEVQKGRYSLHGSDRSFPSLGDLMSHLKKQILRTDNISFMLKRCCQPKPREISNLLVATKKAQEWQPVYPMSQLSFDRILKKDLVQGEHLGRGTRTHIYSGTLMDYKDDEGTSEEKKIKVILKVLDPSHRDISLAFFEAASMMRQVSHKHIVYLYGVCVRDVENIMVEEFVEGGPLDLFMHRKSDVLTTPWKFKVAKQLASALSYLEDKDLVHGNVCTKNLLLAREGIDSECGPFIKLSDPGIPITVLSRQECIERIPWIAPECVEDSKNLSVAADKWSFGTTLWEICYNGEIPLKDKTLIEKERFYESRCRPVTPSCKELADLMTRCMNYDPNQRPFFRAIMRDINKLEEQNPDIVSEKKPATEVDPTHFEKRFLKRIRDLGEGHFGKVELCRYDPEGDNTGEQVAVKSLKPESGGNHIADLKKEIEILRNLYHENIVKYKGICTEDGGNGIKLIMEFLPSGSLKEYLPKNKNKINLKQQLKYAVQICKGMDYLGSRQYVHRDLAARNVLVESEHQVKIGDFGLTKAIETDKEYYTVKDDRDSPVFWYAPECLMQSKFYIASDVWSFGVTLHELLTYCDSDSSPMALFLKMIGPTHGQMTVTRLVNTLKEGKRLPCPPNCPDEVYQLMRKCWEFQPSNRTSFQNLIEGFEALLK
T2 sequence (P15170 whole entry): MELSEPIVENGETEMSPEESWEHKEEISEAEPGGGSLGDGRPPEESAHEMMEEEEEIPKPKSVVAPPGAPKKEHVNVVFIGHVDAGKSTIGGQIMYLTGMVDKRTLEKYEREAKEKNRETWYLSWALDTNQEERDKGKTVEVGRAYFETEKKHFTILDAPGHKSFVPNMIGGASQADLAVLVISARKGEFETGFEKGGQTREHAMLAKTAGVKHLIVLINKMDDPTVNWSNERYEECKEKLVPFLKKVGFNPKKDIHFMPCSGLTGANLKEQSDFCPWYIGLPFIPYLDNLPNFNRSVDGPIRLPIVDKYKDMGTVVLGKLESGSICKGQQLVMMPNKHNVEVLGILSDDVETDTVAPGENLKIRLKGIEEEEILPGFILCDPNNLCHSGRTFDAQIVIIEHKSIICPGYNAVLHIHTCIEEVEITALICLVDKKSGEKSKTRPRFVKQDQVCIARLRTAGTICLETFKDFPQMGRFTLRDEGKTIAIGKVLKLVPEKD

SMILES | Target Protein Degradation (% remaining at 100 nM, 24 h) JAK1 (JAK1) | remaining activity at 0.1 µM (GSPT1) | Target Protein Degradation (% remaining at 100 nM, 24 h) JAK2 (JAK2) | EC50 (MHH-CALL-4 cells) | AUC (MHH-CALL-4 cells) | remaining activity at 0.1 µM (JAK3)
CCS(=O)(=O)N1CC(CC#N)(n2cc(-c3nc(Nc4ccc(C(=O)NCCCCCCNc5ccc(C6CCC(=O)NC6=O)cc5)cc4)nc4[nH]ccc34)cn2)C1 (stereo not drawn) [Compound 1] | 128 % remaining | 84% | 34 % remaining | 0.8 nM | 231 | 37%
CCS(=O)(=O)N1CC(CC#N)(n2cc(-c3nc(Nc4ccc(C(=O)NCCCCCCNc5cccc(C6CCC(=O)NC6=O)c5)cc4)nc4[nH]ccc34)cn2)C1 (stereo not drawn) [Compound 3] | 94 % remaining | 84% | 56 % remaining | 1.7 nM | 248 | 79%
CCS(=O)(=O)N1CC(CC#N)(n2cc(-c3nc(Nc4ccc(C(=O)NCCCCNc5cccc(C6CCC(=O)NC6=O)c5)cc4)nc4[nH]ccc34)cn2)C1 (stereo not drawn) [Compound 4] | 17 % remaining | 124% | 30 % remaining | 2.1 nM | 120 | 44%
CCS(=O)(=O)N1CC(CC#N)(n2cc(-c3nc(Nc4ccc(C(=O)NCCCCCNc5cccc(C6CCC(=O)NC6=O)c5)cc4)nc4[nH]ccc34)cn2)C1 (stereo not drawn) [Compound 6] | 44 % remaining |  | 37 % remaining | 5.9 nM | 136 | 54%
CCS(=O)(=O)N1CC(CC#N)(n2cc(-c3nc(Nc4ccc(C(=O)NCCCCCNc5ccc(C6CCC(=O)NC6=O)cc5)cc4)nc4[nH]ccc34)cn2)C1 (stereo not drawn) [Compound 7] | 78 % remaining | 63% | 29 % remaining | 13.9 nM | 248 | 50%
CCS(=O)(=O)N1CC(CC#N)(n2cc(-c3nc(Nc4ccc(C(=O)NCCOCCOc5ccc(C6CCC(=O)NC6=O)cc5)cc4)nc4[nH]ccc34)cn2)C1 (stereo not drawn) [Compound 11] | 110 % remaining | 130% | 90 % remaining | > 10000 nM |  | 70%
CCS(=O)(=O)N1CC(CC#N)(n2cc(-c3nc(Nc4ccc(C(=O)NCCCCN5CCN(c6ccc(C7CCC(=O)NC7=O)cc6)CC5)cc4)nc4[nH]ccc34)cn2)C1 (stereo not drawn) [Compound 19] | 87 % remaining | 129% | 34 % remaining | 1450 nM | 225 | 112%
CCS(=O)(=O)N1CC(CC#N)(n2cc(-c3nc(Nc4ccc(C(=O)NCCCCN5CCN(c6ccc7c(c6)C(=O)N(C6CCC(=O)NC6=O)C7=O)CC5)cc4)nc4[nH]ccc34)cn2)C1 (stereo not drawn) [Compound 20] | 138 % remaining | 128% | 40 % remaining | 13.6 nM | 123 | 102%
N#CC[C@H](C1CCCC1)n1cc(-c2nc(Nc3ccc(C(=O)NCCN4CCN(c5ccc6c(c5)C(=O)N(C5CCC(=O)NC5=O)C6=O)CC4)cc3)nc3[nH]ccc23)cn1 (stereo partly drawn) [Compound 22] | 72 % remaining | 103% | 36 % remaining | 18.1 nM | 141 | 61%
N#CC[C@H](C1CCCC1)n1cc(-c2nc(Nc3ccc(C(=O)NCCCN4CCN(c5ccc(C6CCC(=O)NC6=O)cc5)CC4)cc3)nc3[nH]ccc23)cn1 (stereo partly drawn) [Compound 38, 4-((4-(1-((R)-2-cyano-1-cyclopentylethyl)-1H-pyrazol-4-yl)-7H-pyrrolo[2,3-d]pyrimidin-2-yl)amino)-N-(3-(4-(4-(2,6-dioxopiperidin-3-yl)phenyl)piperazin-1-yl)propyl)benzamide] |  | 99% | 48 % remaining | 2.6 nM | 122 | 41%
CCCn1cc(-c2nc(Nc3ccc(C(=O)NCCCCOc4ccc(C5CCC(=O)NC5=O)cc4)cc3)nc3[nH]ccc23)cn1 (stereo not drawn) [Compound 43, N-(4-(4-(2,6-dioxopiperidin-3-yl)phenoxy)butyl)-4-((4-(1-propyl-1H-pyrazol-4-yl)-7H-pyrrolo[2,3-d]pyrimidin-2-yl)amino)benzamide] | 123 % remaining | 37% | 76 % remaining |  |  | 79%
CCCn1cc(-c2nc(Nc3ccc(C(=O)NCCCN4CCN(c5ccc(C6CCC(=O)NC6=O)cc5)CC4)cc3)nc3[nH]ccc23)cn1 (stereo not drawn) [Compound 44, N-(3-(4-(4-(2,6-dioxopiperidin-3-yl)phenyl)piperazin-1-yl)propyl)-4-((4-(1-propyl-JH-pyrazol-4-yl)-7H-pyrrolo[2,3-d]pyrimidin-2-yl)amino)benzamide] | 104 % remaining | 81% | 64 % remaining |  |  | 74%
CCS(=O)(=O)N1CC(CC#N)(n2cc(-c3nc(Nc4ccc(C(=O)NCC5CCN(c6ccc(C7CCC(=O)NC7=O)cc6)CC5)cc4)nc4[nH]ccc34)cn2)C1 (stereo not drawn) [Compound 45, 4-((4-(1-(3-(cyanomethyl)-1-(ethylsulfonyl)azetidin-3-yl)-1H-pyrazol-4-yl)-7H-pyrrolo[2,3-d]pyrimidin-2-yl)amino)-N-((1-(4-(2,6-dioxopiperidin-3-yl)phenyl)piperidin-4-yl)methyl)benzamide] | 107 % remaining | 101% | 21 % remaining |  |  | 29%
